From patent publication US5932607A, “Imidazole derivatives and process for preparing the same” (Kyorin Pharmaceutical Co., Ltd., priority 1993, dated 1999) come the findings set out here.

Read-outs that look alike come from different tables or passages of the source.

Assay type in all cases: cell-based, guinea pig (male Hartley)
In assay [1] the target is T1, muscarinic receptor (ileum) (Cavia porcellus, UniProt H0W1Z3).
T1 construct: from tissue; host or cells: guinea-pig ileal segments (male Hartley)
T1 sequence (H0W1Z3 1-590): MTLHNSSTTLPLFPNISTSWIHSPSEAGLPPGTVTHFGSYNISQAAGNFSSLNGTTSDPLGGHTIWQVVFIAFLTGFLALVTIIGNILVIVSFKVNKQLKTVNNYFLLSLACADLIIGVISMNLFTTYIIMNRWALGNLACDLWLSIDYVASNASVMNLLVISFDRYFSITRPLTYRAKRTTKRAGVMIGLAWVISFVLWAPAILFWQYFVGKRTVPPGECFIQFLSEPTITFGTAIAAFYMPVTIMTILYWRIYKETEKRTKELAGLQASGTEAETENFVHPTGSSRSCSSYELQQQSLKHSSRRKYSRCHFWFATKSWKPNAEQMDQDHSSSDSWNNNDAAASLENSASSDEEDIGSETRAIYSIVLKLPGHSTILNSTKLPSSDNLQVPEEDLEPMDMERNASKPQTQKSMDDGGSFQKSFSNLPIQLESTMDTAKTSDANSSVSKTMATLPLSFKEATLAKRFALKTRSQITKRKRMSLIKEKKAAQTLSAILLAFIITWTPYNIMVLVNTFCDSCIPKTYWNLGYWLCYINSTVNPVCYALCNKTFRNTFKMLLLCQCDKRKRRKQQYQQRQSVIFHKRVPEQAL
The experiment in a line: Anticholinergic action in guinea-pig ileum (antagonism of ACh response, Schild method). The following applies: ileum, Tyrode solution, 32° C., test compound 5 min. before ACh; for Kb: read-out: Anticholinergic activity (pA2) Ileum (converted). On the procedure: (§1) 1. Anticholinergic action in guinea-pig ileum and atria Male Hartley guinea pigs were sacrificed by blowing on the head and bleeding.
(§2) Responses to acetyllchlloline (ACh) added cumulatively to the baths were isotonically recorded under a tension of 1 g. Dose-response curves of ACh were determined in the absence and presence of test compounds in various concentrations added to the baths 5 min. before ACh application.

The target of assay [2] is T2, muscarinic receptor (atrium, cardiac) (Cavia porcellus, UniProt H0VRN8).
T2 construct: from tissue; host or cells: guinea-pig isolated atria (male Hartley)
T2 sequence (H0VRN8 1-466): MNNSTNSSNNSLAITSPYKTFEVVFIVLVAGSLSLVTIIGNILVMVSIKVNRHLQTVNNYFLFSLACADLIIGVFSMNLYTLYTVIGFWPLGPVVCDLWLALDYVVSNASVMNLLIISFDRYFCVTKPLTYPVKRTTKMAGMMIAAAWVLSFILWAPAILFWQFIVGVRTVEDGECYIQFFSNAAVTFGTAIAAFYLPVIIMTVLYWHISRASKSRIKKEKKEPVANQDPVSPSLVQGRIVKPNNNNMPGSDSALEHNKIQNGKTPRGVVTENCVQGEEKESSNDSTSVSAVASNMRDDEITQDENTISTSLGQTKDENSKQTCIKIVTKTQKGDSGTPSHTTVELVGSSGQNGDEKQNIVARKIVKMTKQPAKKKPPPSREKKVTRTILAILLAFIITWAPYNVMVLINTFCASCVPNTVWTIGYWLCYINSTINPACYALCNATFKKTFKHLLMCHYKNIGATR
The assay can be described thus: Anticholinergic action in guinea-pig atria (antagonism of ACh response, Schild method). The following applies: for Kb: read-out: Anticholinergic activity (pA2) Atrium (converted). Here is the method:
as §1
The isolated atria were suspended under 0.5 g tension in organ baths containing Tyrode solution gassed with 95% O2 and 5% CO2 at 32° C.
Dose-response curves were obtained by cumulative addition of ACh and repeated in the presence of various concentrations of test compounds, allowing 10 min. equilibration time.
The affinity of test compounds were determined as described for ileum.

For assay [3], the target named is T3, muscarinic receptor (trachea) (Cavia porcellus, UniProt H0W1Z3).
T3 construct: from tissue; host or cells: guinea-pig tracheal ring strips (male Hartley)
T3 sequence (H0W1Z3 1-590): as the sequence (H0W1Z3 1-590) above
The experiment in a line: Anticholinergic action in guinea-pig trachea (antagonism of ACh response, Schild or van Rossum method). The following applies: Tyrode solution, 37° C., 10 minutes equilibration, read-out: Anticholinergic activity (pA2) Trachea (converted). Here is the method: 4. Anticholinergic action in guinea-pig trachea Male Hartley guinea-pigs were killed by blowing on the head and bleeding.
Ring strips of trachea were suspended in organ bath filled with Tyrode solution, kept at 37° C. and gassed with a mixture of 95% O2 and 5% CO2.
Responses to ACh were isometrically recorded under a tension of 1 g. Concentration-Response curves were obtained cumulative addition of ACh and repeated in the presence of various concentrations of test compounds, allowing 10 minutes equilibration time.

Assay [4] deals with muscarinic receptor (ileum). The experiment in a line: Anticholinergic action in guinea-pig ileum (antagonism of ACh response, Schild method). The conditions noted are these: ileum versus heart. On the procedure:
as §1, §2

Where [5] appears, read: Table 8, isolated atria, Tyrode solution, 32° C., 10 min. equilibration.

Regarding `Cc1nccn1CCCC(C#N)(c1ccccc1)c1ccccc1` [Example 7], the Kb in assay [1] is 1.12 nM; in assay [2] (setting [5]), 6.17 nM.

As to `CCN(CC)CC#CCOC(=O)C(O)(c1ccccc1)C1CCCCC1` (stereo not shown) [Oxybutynin, reference compound], the Kb in assay [2] (setting [5]) was 4.07 nM.

As for `Cc1n(CCCCC(C(N)=O)(c2ccccc2)c2ccccc2)cc[n+]1Cc1ccccc1` [Example 51], the Kb in assay [3] was 4.57 nM; in assay [2] (Table 9, atrium), 20 nM.

For the compound `Cc1n(CCC(C(N)=O)(c2ccccc2)c2ccccc2)cc[n+]1Cc1ccc(F)c(F)c1` [Example 44], the Kb in assay [3] is 5.25 nM; in assay [2] (Table 9, atrium), 28.8 nM.

With `Cc1nccn1CCC(C(N)=O)(c1ccccc1)c1ccccc1` [Example 11, 4-(2-Methyl-1-imidazolyl)-2,2-diphenylbutylamide], the “affinity for receptors in ileum as compared to receptors in heart” value (“affinity … compared to receptors in heart” for short) in assay [4] came out at 10 times.

Consider `Cc1n(CCC(C(N)=O)(c2ccccc2)c2ccccc2)cc[n+]1Cc1ccc(-c2ccccc2)cc1` [Example 50], for which the Kb in assay [3] is 4.57 nM; in assay [2] (Table 9, atrium) it was 30.2 nM.

`CC(C)c1nccn1CCC(C(N)=O)(c1ccccc1)c1ccccc1` [Example 14, 4-(2-isopropyl-1-imidazolyl)-2,2-diphenylbutylamide]: the Kb is 0.676 nM in assay [1] and 18.6 nM in assay [2] (setting [5]). In addition, in assay [4], the “affinity … compared to receptors in heart” value was 10 times.

For `Cc1nccn1CCCCC(C#N)(c1ccccc1)c1ccccc1` [Example 8], the “Anticholinergic activity (pA2) Ileum” value in assay [1] is 8.17. The “affinity … compared to receptors in heart” value in assay [4] stood at 10 times. Also, the “Anticholinergic activity (pA2) Atrium” value in assay [2] (setting [5]) came out at 7.08.
